Data from US12083101B2, “Biaryl derivatives as YAP/TAZ-TEAD protein-protein interaction inhibitors” (Novartis AG, priority 2020, dated 2024).
Where two headings read alike, the source gives them in different places.

What was measured:
[1] = system: NCI-H2052 Tet-On shYAP_2371 pLenti6 MCAT_Luc cells (YAP-dependent transcription); assay: YAP reporter gene activity assay (MCAT-luciferase), NCI-H2052; format: cell-based; conditions: 24 hours incubation, BrightGlo luminescence
Method: (§1) This cell line was also transduced with a Tet-pLKO-puro-based construct mediating tetracycline-inducible expression of a short-hairpin directed against the 3′UTR of the YAP1 mRNA (5′-[…]-3′).
(§2) Stock solutions of compounds were prepared at a concentration of 10 mM in DMSO and stored at 4° C. Where necessary to afford a full dose-response curve, the stock solutions were pre-diluted in DMSO to 1'000-fold the desired reduced start concentration. On the day after cell seeding, eleven 2-fold serial dilutions of each compound were dispensed directly into the cell assay plates using a HP 300D non-contact Digital Dispenser (TECAN, Mannedorf, Switzerland). The final concentration of DMSO was normalized to 0.1% in all wells.
The ability of compounds to inhibit YAP-dependent transcription was assessed in NCI-H2052 Tet-On shYAP_2371 pLenti6 MCAT_Luc cells, while specificity (lack of unspecific inhibition of luciferase expression of activity) was assessed in MKN-45/Ubc-luc cells. […] Following incubation for 24 hours at 37° C., compound-mediated modulation of reporter-gene activity was quantified 5 min after addition of 20 μl BrightGlo (Promega, Cat #E2620), by measuring luminescence intensity on a multi-mode plate-reader (TECAN, Männedorf, Switzerland, Integration time 100 ms). For data analysis, the assay background value determined in wells containing medium, but no cells, was subtracted from all data points. Dose-dependent compound effects were expressed as % of vehicle-treated control (luminescence signal produced by cells receiving DMSO only) and IC50s calculated using a four-parametric fit model.

[2] = molecular target: Avi-humanTEAD4 217-434 / Cy5 labeled humanYAP 60-100 (Homo sapiens (Human), UniProt Q15561); assay: TR-FRET YAP-TEAD4 in-vitro biochemical assay; format: binding; conditions: 1 nM Avi-humanTEAD4 217-434, 20 nM Cy5-humanYAP 60-100, 1 h room temperature
Chain of Avi-humanTEAD4 217-434 / Cy5 labeled humanYAP 60-100 (Q15561 217-434): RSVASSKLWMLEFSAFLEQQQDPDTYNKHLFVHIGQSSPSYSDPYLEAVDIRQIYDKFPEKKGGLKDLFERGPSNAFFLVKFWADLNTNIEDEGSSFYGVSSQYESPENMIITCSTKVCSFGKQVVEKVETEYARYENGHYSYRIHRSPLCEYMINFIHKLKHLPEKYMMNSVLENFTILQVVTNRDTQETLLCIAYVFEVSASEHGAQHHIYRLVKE

[3] = system: NCI-H2052 Tet-On shYAP_2371 pLenti6 MCAT_Luc cells; assay: Proliferation assay (resazurin), NCI-H2052; format: cell-based; conditions: 72 hours incubation
Method: as §1, §2
(§3) The functional effect of compounds on cell proliferation was assessed using NCI-H2052 Tet-On shYAP_2371 pLenti6 MCAT_Luc and MKN-45/Ubc-luc cells by quantifying the reducing capacity of live cells using the redox indicator dye resazurin. […] For data analysis, the assay background value determined in wells containing medium, but no cells, was subtracted from all data points. […] The effect of a particular test compound concentration on cell proliferation/viability was expressed as percentage of day 0-corrected fluorescence reading obtained for cells treated with vehicle only (DMSO, final concentration 0.1%), which was set as 100%, whereas the fluorescence reading for wells containing medium only, but no cells, was set as −100%. Compound concentrations leading to half-maximal growth inhibition (GI50) were determined using standard four parameter curve fitting.

MKN-45/Ubc-luc cells [4] = assay: Reporter gene specificity control (Ubc-luciferase), MKN-45
MKN-45/Ubc-luc cells [5] = assay: Proliferation assay (resazurin), MKN-45; format: cell-based; conditions: 72 hours incubation
Method: As a specificity control, MKN-45 cells were stably transduced with a Ubc-Luc reporter construct, in which constitutive expression of firefly luciferase is driven by the promoter of the ubiquitin C housekeeping gene.
as §2, §3

[6] = Homo sapiens, MKN-45, 24 h, read-out: Reporter gene assay MKN-45 IC50 [μM], MKN-45/Ubc-luc cells (YAP deleted, specificity control), 24 hours incubation
[7] = read-out: Reporter gene assay MKN-45 IC50, MKN-45/Ubc-luc cells (YAP deleted, specificity control), 24 hours incubation

IC50 ([1]; Homo sapiens, NCI-H2052, 24 h) [nM] | IC50 [2] [nM] | GI50 ([3]; Homo sapiens, NCI-H2052, 72 h) [nM] | IC50 (MKN-45/Ubc-luc cells [4]; [6]) [µM] | GI50 (MKN-45/Ubc-luc cells [5]; Homo sapiens) [µM] | IC50 [1] [nM] | GI50 [3] [nM] | IC50 (MKN-45/Ubc-luc cells [4]; [7]) [µM] | GI50 (MKN-45/Ubc-luc cells [5]) [µM] | Structure (SMILES)
12 | 1 | 23 | > 8 | > 8 | – | – | – | – | NC(=O)c1ccc(OCCO)c(F)c1-c1c(Cl)c(F)cc2c1C[C@](c1ccccc1)([C@@H]1CCCN1)N2 (atropisomer, axis not shown) [Example 170, 2-((2S,4S)-5-Chloro-6-fluoro-2-phenyl-2-((S)-pyrrolidin-2-yl)indolin-4-yl)-3-fluoro-4-(2-hydroxyethoxy)benzamide]
47 | 5 | 94 | > 10 | > 10 | – | – | – | – | NC[C@@]1(c2ccccc2)Cc2c(cc(F)c(Cl)c2-c2c(C(N)=O)cnc(OCCO)c2F)O1 (atropisomer, axis not shown) [Example 43, 4-((2S,4S)-2-(Aminomethyl)-5-chloro-6-fluoro-2-phenyl-2,3-dihydrobenzofuran-4-yl)-5-fluoro-6-(2-hydroxyethoxy)nicotinamide]
15 | 2 | 22 | > 10 | > 10 | – | – | – | – | NC(=O)c1ccc(OCCO)c(F)c1-c1c(Cl)c(F)cc2c1C[C@](c1ccccc1)([C@@H]1CCCN1)O2 (atropisomer, axis not shown) [Example 151, 2-((2S,4S)-5-Chloro-6-fluoro-2-phenyl-2-((S)-pyrrolidin-2-yl)-2,3-dihydrobenzofuran-4-yl)-3-fluoro-4-(2-hydroxyethoxy)benzamide]
615 | 25 | 892 | > 10 | > 10 | – | – | – | – | CNC(=O)c1ccc(OC)c(F)c1-c1c(C#N)ccc2c1C[C@@](CN[C@H]1CC[C@](C)(O)CC1)(c1ccccc1)O2 (atropisomer, axis not shown) [Example 129, 2-((2S,4R)-5-Cyano-2-((((trans)-4-hydroxy-4-methylcyclohexyl)amino)methyl)-2-phenyl-2,3-dihydrobenzofuran-4-yl)-3-fluoro-4-methoxy-N-methylbenzamide]
62 | 3 | 71 | > 10 | > 10 | – | – | – | – | CNC[C@@]1(c2ccccc2)Cc2c(cc(F)c(Cl)c2-c2c(C(=O)NC)ccc(OCCO)c2F)O1 (atropisomer, axis not shown) [Example 51, 2-((2S,4S)-5-Chloro-6-fluoro-2-((methylamino)methyl)-2-phenyl-2,3-dihydrobenzofuran-4-yl)-3-fluoro-4-(2-hydroxyethoxy)-N-methylbenzamide]
144 | 15 | 104 | > 20 | > 20 | – | – | – | – | CNC(=O)c1ccc(OC[C@H](C)O)c(F)c1-c1c(Cl)c(F)cc2c1C[C@](c1ccccc1)([C@@H]1CCCN1)N2 (atropisomer, axis not shown) [Example 172, 2-((2S,4S)-5-Chloro-6-fluoro-2-phenyl-2-((S)-pyrrolidin-2-yl)indolin-4-yl)-3-fluoro-4-((S)-2-hydroxypropoxy)-N-methylbenzamide]
82 | 5 | 131 | > 10 | > 10 | – | – | – | – | COc1ccc(C(N)=O)c(-c2c(Cl)c(F)cc3c2[C@H](OC)[C@](c2ccccc2)(C2CCCN2)O3)c1F (stereo partly drawn) [Example 165, 2-((2S,3S,4S)-5-chloro-6-fluoro-3-methoxy-2-phenyl-2-(pyrrolidin-2-yl)-2,3-dihydrobenzofuran-4-yl)-3-fluoro-4-methoxybenzamide]
394 | 24 | 503 | > 10 | > 10 | – | – | – | – | NC(=O)c1ccc(OC(F)F)c(F)c1-c1c(Cl)c(F)cc2c1C[C@@](CN[C@@H]1CCC[C@H](O)C1)(c1ccccc1)O2 (atropisomer, axis not shown) [Example 83, 2-((2S,4S)-5-chloro-6-fluoro-2-((((1R,3S)-3-hydroxycyclohexyl)amino)methyl)-2-phenyl-2,3-dihydrobenzofuran-4-yl)-4-(difluoromethoxy)-3-fluorobenzamide]
4770 | 143 | 6840 | > 10 | > 10 | – | – | – | – | NC[C@@]1(c2cccc3c2OC(F)(F)O3)Cc2c(ccc(Cl)c2-c2c(F)cccc2C(N)=O)O1 (atropisomer, axis not shown) [Example 30, 2-((2S,4S)-2-(aminomethyl)-5-chloro-2-(2,2-difluorobenzo[d][1,3]dioxol-4-yl)-2,3-dihydrobenzofuran-4-yl)-3-fluorobenzamide]
45 | 2 | 76 | > 10 | > 10 | – | – | – | – | COCCOc1ccc(C(N)=O)c(-c2c(Cl)c(F)cc3c2[C@H](C)[C@@](CN[C@H]2CC[C@](C)(O)CC2)(c2ccccn2)O3)c1F (atropisomer, axis not shown) [Example 126, 2-((2R,3S,4S)-5-Chloro-6-fluoro-2-((((trans)-4-hydroxy-4-methylcyclohexyl)amino)methyl)-3-methyl-2-(pyridin-2-yl)-2,3-dihydrobenzofuran-4-yl)-3-fluoro-4-(2-methoxyethoxy)benzamide]
– | 32 | – | – | – | 316 | 571 | > 10 | > 10 | NC(=O)c1ccc(OC(F)F)c(F)c1-c1c(Cl)c(F)cc2c1C[C@@](CN[C@H]1CC[C@@H](O)[C@H](F)C1)(c1ccccc1)O2 (atropisomer, axis not shown) [Example 81b, 2-((2S,4S)-5-chloro-6-fluoro-2-((((1R,3S,4S)-3-fluoro-4-hydroxycyclohexyl)amino)methyl)-2-phenyl-2,3-dihydrobenzofuran-4-yl)-4-(difluoromethoxy)-3-fluorobenzamide]
10 | 1 | 15 | > 5.5 | > 5.5 | – | – | – | – | C[C@H]1c2c(cc(F)c(Cl)c2-c2c(C(N)=O)ccc(OCCO)c2F)O[C@]1(CNC1CCC1)c1ccccc1 (atropisomer, axis not shown) [Example 118, 2-((2S,3S,4S)-5-chloro-2-((cyclobutylamino)methyl)-6-fluoro-3-methyl-2-phenyl-2,3-dihydrobenzofuran-4-yl)-3-fluoro-4-(2-hydroxyethoxy)benzamide]
21 | 2 | 29 | > 10 | > 10 | – | – | – | – | CNC[C@]1(c2ccccc2)Oc2cc(F)c(Cl)c(-c3c(C(=O)NC)ccc(OCCO)c3F)c2[C@@H]1C (atropisomer, axis not shown) [Example 113, 2-((2S,3S,4S)-5-Chloro-6-fluoro-3-methyl-2-((methylamino)methyl)-2-phenyl-2,3-dihydrobenzofuran-4-yl)-3-fluoro-4-(2-hydroxyethoxy)-N-methylbenzamide]
– | 6 | – | – | – | 28 | 29 | > 10 | > 10 | NC(=O)c1ccc(OCCO)c(F)c1-c1c(Cl)c(F)cc2c1C[C@@](CN[C@H]1C[C@H](C(F)F)C1)(c1ccccc1)O2 (relative stereo) [Example 140b, 2-((2S,4S)-5-chloro-2-((((trans)-3-(difluoromethyl)cyclobutyl)amino)methyl)-6-fluoro-2-phenyl-2,3-dihydrobenzofuran-4-yl)-3-fluoro-4-(2-hydroxyethoxy)benzamide]
77 | 8 | 59 | > 10 | > 10 | – | – | – | – | CNC(=O)c1ccc(OC[C@H](C)O)c(F)c1-c1c(Cl)c(F)cc2c1C[C@](c1ccccc1)([C@@H]1CCCN1)O2 (atropisomer, axis not shown) [Example 154, 2-((2S,4S)-5-Chloro-6-fluoro-2-phenyl-2-((S)-pyrrolidin-2-yl)-2,3-dihydrobenzofuran-4-yl)-3-fluoro-4-((S)-2-hydroxypropoxy)-N-methylbenzamide]
